Test results taken from patent US20220071932A1, “Compositions and Methods Against Stress-Induced Affective Disorders and Their Associated Symptoms” (The Trustees of Columbia University in the City of New York, priority 2019, published 2022).

Tested on: 129S6/SvEv mice
Assay: Forced swim test (FST); immobility time
Assay type: in vivo
Settings: for p, Immobility Time (s), FST Day 2, (R,S)-ketamine vs. FENM: (R,S)-ketamine 30 mg/kg vs. FENM 20 mg/kg; for p, Immobility Time (s), FST Day 2, Saline vs. drug: (R,S)-ketamine 30 mg/kg
Description: The FST was administered as previously described (47). Briefly, mice were placed into clear plastic buckets 20 cm in diameter and 23 cm deep filled ⅔ of the way with 22° C. water. Mice were videotaped from the side for 6 min and were exposed to the swim test on 2 consecutive days Immobility time was scored by an experimenter blind to the experimental groups.

[1] = Fisher's LSD, Baseline cohort, FENM 20 mg/kg, FIG. 6D
[2] = Saline vs. FENM (20 mg/kg), FIG. 8H
[3] = dose (20), drug 5 minutes after stress, FIG. 2F
[4] = non-stressed mice, FENM 20 mg/kg 1 hour before the start of the FST, vs saline

Compound: NC12CC3CC(C1)CC(CCF)(C3)C2 [FENM, 1-amino-3-fluoroethyl-adamantane]
- Behavior: Depressive-like (Antidepressant (5 min after stress), dose 10 mg/kg): ↓
- Behavior: Depressive-like (Antidepressant (5 min after stress), dose 20 mg/kg): ↓
- Behavior: Depressive-like (Antidepressant (5 min after stress), dose 30 mg/kg): ↓
- Behavior: Depressive-like (Antidepressant (5 min after stress; extinction), dose 20 mg/kg): ↓
- p, Immobility Time Min 1 (sec), FST Day 2, Saline vs. FENM [1]: 0.3330
- p, Immobility Time Min 2 (sec), FST Day 2, Saline vs. FENM [1]: 0.4156
- p, Immobility Time Min 3 (sec), FST Day 2, Saline vs. FENM [1]: 0.0346
- p, Immobility Time Min 4 (sec), FST Day 2, Saline vs. FENM [1]: 0.2905
- p, Immobility Time Min 5 (sec), FST Day 2, Saline vs. FENM [1]: 0.6448
- p, Immobility Time Min 6 (sec), FST Day 2, Saline vs. FENM [1]: 0.5256
- p, Immobility Time (s), FST Day 2, (R,S)-ketamine vs. FENM (Fisher's PLSD after ANOVA, drug 5 minutes after stress, FIG. 3K): 0.0014
- p, Immobility Time (s), FST Day 2, Saline vs. drug (Fisher's PLSD after ANOVA, drug 5 minutes after stress, FENM 20 mg/kg, FIG. 3K): 0.0097
- p, Immobility Time (s), FST Day 2, (R,S)-ketamine vs. FENM (Fisher's PLSD after RMANOVA, drug 5 minutes after stress, FIG. 3J): 0.0069
- p, Immobility Time (s), FST Day 2, Saline vs. drug (Fisher's PLSD after RMANOVA, drug 5 minutes after stress, FENM 20 mg/kg, FIG. 3J): 0.0234
- Behavior: Depressive-like (Prophylactic (7 days before stress), dose 10 mg/kg): ↓
- Behavior: Depressive-like (Prophylactic (7 days before stress), dose 20 mg/kg): ↓
- Behavior: Depressive-like (Prophylactic (7 days before stress), dose 30 mg/kg): ↓
- Forced Swim Test Day 1, Immobility Time Min 1 (sec), p (Fisher's LSD) [2]: <0.0001
- Forced Swim Test Day 1, Immobility Time Min 2 (sec), p (Fisher's LSD) [2]: 0.0752
- Forced Swim Test Day 1, Immobility Time Min 3 (sec), p (Fisher's LSD) [2]: 0.0422
- Forced Swim Test Day 1, Immobility Time Min 4 (sec), p (Fisher's LSD) [2]: 0.4348
- Forced Swim Test Day 1, Immobility Time Min 5 (sec), p (Fisher's LSD) [2]: 0.8223
- Forced Swim Test Day 1, Immobility Time Min 6 (sec), p (Fisher's LSD) [2]: 0.0677
- Forced Swim Test Day 2, Immobility Time (sec), p (Fisher's LSD) (Saline vs. FENM (20 mg/kg), after ANOVA, FIG. 8K): 0.3636
- Forced Swim Test Day 2, Immobility Time (sec), p (Fisher's LSD) (Saline vs. FENM (20 mg/kg), after RMANOVA, FIG. 8J): 0.3085
- p, Fisher's PLSD Saline vs. drug, FST Day 2 Immobility Time Min 1 (s) [3]: 0.0237
- p, Fisher's PLSD Saline vs. drug, FST Day 2 Immobility Time Min 2 (s) [3]: 0.0034
- p, Fisher's PLSD Saline vs. drug, FST Day 2 Immobility Time Min 3 (s) [3]: 0.0763
- p, Fisher's PLSD Saline vs. drug, FST Day 2 Immobility Time Min 4 (s) [3]: 0.1586
- p, Fisher's PLSD Saline vs. drug, FST Day 2 Immobility Time Min 5 (s) [3]: 0.0575
- p, Fisher's PLSD Saline vs. drug, FST Day 2 Immobility Time Min 6 (s) [3]: 0.2137
- p, Fisher's PLSD Saline vs. drug, FST Day 2 Immobility Time (s) (dose (20), drug 5 minutes after stress, after ANOVA, FIG. 2G): 0.0024
- immobility, day 1 of the FST [4]: comparable
- immobility, day 2 of the FST [4]: comparable
- p, Immobility Time (sec), FST Day 1, Saline vs. FENM (t-test, Baseline cohort, FENM 20 mg/kg, FIG. 6C): 0.7086
- p, Immobility Time (sec), FST Day 2, Saline vs. FENM (t-test, Baseline cohort, FENM 20 mg/kg, FIG. 6E): 0.7847
